Tested on: β-amyloid peptide release and/or its synthesis
Experiment: inhibition of β-amyloid peptide release and/or its synthesis (test not specified)
Type: cell-based
Conditions: statement in words only; no assay or value given

Structure (SMILES)	inhibits β-amyloid peptide release and/or its synthesis
CC(C)(C)c1cc(NC(=O)c2cccc(Nc3cc(F)cc(F)c3)c2)[nH]n1 [Example 111, N-(5-tert-Butyl-2H-pyrazol-3-yl)-3-(3,5-difluoro-phenylamino)-benzamide]	inhibits β-amyloid peptide release and/or its synthesis
CC(C)(C)c1cc(NC(=O)c2cccc(N(C=O)Cc3cc(F)cc(F)c3)c2)[nH]n1 [Example 110]	inhibits β-amyloid peptide release and/or its synthesis

From patent US7759382B2, “Acylated amino acid amidyl pyrazoles and related compounds” (Elan Pharmaceuticals, Inc., priority 2003, dated 2010)
